Reference: ChEMBL document CHEMBL1136988, “1-amino-4-benzylphthalazines as orally bioavailable smoothened antagonists with antitumor activity” (J Med Chem, 2009)
pIC50: −log10 of the molar value.

How the values were obtained:
Protein smoothened [1] = biological target: Protein smoothened (Homo sapiens, UniProt Q99835); experiment: Displacement of [3H]3-chloro-4,7-difluoro-N-(4-methoxy-3-(pyridin-4-yl)benzyl)-N-(4-(methylamino)cyclohexyl)benzo[b]thiophene-2-carboxamide from human Smoothened receptor expressed in CHO-K1 cells by membrane filter binding assay; format: cell-based
Protein smoothened [2] = biological target: T1, Protein smoothened (Mus musculus, UniProt P56726); experiment: Displacement of [3H]3-chloro-4,7-difluoro-N-(4-methoxy-3-(pyridin-4-yl)benzyl)-N-(4-(methylamino)cyclohexyl)benzo[b]thiophene-2-carboxamide from mouse Smoothened receptor expressed in CHO-K1 cells by membrane filter binding assay; format: cell-based
Protein smoothened [3] = biological target: T1, Protein smoothened; experiment: Inhibition of Smoothened receptor in mouse TM3 cells transfected with pTA-8xGli-Luc reporter gene assessed as inhibition of 1 nM 3-chloro-4,7-difluoro-N-(4-methoxy-3-(pyridin-4-yl)benzyl)-N-(4-(methylamino)cyclohexyl)benzo[b]thiophene-2-carboxamide-induced Hedgehog pathway activation by Gli shift assay; format: cell-based
Protein smoothened [4] = biological target: T1, Protein smoothened; format: cell-based, TM3
Description: Inhibition of Smoothened receptor in mouse TM3 cells transfected with pTA-8xGli-Luc reporter gene assessed as inhibition of 25 nM 3-chloro-4,7-difluoro-N-(4-methoxy-3-(pyridin-4-yl)benzyl)-N-(4-(methylamino)cyclohexyl)benzo[b]thiophene-2-carboxamide-induced Hedgehog pathway activation by Gli shift assay

Sequence of Protein smoothened (Homo sapiens, UniProt Q99835) (Q99835 whole entry): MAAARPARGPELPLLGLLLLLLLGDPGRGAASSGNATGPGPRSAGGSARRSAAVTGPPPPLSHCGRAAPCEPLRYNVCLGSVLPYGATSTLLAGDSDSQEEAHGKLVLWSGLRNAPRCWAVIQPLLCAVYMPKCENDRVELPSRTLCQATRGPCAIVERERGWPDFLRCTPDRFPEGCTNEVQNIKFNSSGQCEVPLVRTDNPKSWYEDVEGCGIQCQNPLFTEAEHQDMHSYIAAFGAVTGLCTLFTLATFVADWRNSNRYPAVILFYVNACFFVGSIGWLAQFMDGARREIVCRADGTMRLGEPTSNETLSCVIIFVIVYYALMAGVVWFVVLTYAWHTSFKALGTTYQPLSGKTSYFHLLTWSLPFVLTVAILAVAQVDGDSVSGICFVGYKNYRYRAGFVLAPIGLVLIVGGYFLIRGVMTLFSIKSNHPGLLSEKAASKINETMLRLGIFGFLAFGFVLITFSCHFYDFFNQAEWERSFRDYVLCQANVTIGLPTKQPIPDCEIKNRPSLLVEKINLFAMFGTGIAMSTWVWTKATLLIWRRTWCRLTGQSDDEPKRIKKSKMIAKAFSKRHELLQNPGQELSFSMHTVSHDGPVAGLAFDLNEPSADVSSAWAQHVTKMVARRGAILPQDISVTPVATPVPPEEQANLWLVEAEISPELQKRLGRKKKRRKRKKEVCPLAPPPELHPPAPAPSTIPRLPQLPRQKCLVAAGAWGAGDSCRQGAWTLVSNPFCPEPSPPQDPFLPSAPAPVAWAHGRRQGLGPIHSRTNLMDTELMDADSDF
T1 sequence (P56726 whole entry): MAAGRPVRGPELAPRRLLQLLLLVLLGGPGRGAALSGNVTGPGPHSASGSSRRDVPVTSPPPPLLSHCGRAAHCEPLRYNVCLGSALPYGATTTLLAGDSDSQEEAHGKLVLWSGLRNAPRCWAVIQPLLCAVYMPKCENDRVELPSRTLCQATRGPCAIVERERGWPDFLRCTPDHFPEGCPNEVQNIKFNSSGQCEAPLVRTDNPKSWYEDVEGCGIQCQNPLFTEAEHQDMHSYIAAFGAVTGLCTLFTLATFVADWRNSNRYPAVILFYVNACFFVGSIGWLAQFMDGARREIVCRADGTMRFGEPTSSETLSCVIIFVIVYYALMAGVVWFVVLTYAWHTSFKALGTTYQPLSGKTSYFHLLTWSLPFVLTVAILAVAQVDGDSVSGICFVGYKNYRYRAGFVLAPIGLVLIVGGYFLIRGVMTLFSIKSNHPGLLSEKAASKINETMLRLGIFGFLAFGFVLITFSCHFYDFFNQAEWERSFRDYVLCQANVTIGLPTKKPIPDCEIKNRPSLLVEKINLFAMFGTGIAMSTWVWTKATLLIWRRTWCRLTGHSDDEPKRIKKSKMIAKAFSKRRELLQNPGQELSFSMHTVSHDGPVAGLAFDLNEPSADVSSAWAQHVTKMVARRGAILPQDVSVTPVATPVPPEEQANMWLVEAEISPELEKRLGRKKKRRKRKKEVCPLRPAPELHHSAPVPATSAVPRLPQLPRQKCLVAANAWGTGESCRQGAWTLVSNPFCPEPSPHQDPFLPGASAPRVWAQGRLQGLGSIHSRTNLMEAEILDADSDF

pIC50 (Protein smoothened [1]) | pIC50 (Protein smoothened [2]) | pIC50 (Protein smoothened [3]) | pIC50 (Protein smoothened [4]) | SMILES
7.47 | 7.64 | 7.70 | 6.59 | N#Cc1ccc(Cc2nnc(N3CCN(c4ccc(C#N)cn4)CC3)c3ccccc23)cc1
7.47 | 7.77 | 7.52 | 6.61 | C[C@@H]1CN(c2nnc(Cc3ccccc3)c3ccccc23)CCN1c1ccc(C#N)cn1
6.40 | 6.41 | 6.42 | 5.82 | N#Cc1ccc(N2CCC(c3cn(Cc4ccccc4)c4ccccc34)CC2)nc1
6.66 | 6.74 | 7.07 | 6.13 | C[C@@H]1CN(c2ccc(C#N)cn2)CCN1c1nnc(Cc2ccccc2)c2ccccc12
< 5.30 | < 5.30 | 5.75 | < 5.30 | FC(F)(F)c1ccc(N2CCN(c3nnc(Cc4ccccc4)c4ccoc34)CC2)nc1
6.32 | 6.73 | 6.43 | 5.61 | OCc1ccc(N2CCN(c3nnc(Cc4ccccc4)c4ccccc34)CC2)nc1
6.71 | 7.02 | 7.46 | 6.49 | CC(=O)NCc1ccc(N2CCN(c3nnc(Cc4ccccc4)c4ccccc34)CC2)nc1
7.09 | 7.27 | 6.95 | 6.16 | N#Cc1ccc(N2CCN(c3nnc(Cc4cccc(Cl)c4)c4ccccc34)CC2)nc1
7.82 | 8.22 | 8.89 | 7.38 | CC(C)(N)c1ccc(N2CCN(c3nnc(Cc4ccccc4)c4ccccc34)CC2)nc1
< 5.30 | < 5.30 | 5.85 | 5.52 | N#Cc1ccc(N2CCN(c3ncc(Cc4ccccc4)c4ccccc34)CC2)nc1
< 5.30 | < 5.30 | 5.42 | < 5.30 | N#Cc1ccc(C2CCN(c3nnc(Cc4ccccc4)c4ccccc34)CC2)cc1
6.51 | 7.05 | 6.98 | 6.04 | NS(=O)(=O)c1ccc(N2CCN(c3nnc(Cc4ccccc4)c4ccccc34)CC2)nc1
5.91 | 6.19 | 6.59 | 6.11 | c1ccc(Cc2nnc(N3CCN(c4ccccn4)CC3)c3ccccc23)cc1
5.65 | 5.78 | 5.57 | < 5.30 | O=C(O)c1ccc(N2CCN(c3nnc(Cc4ccccc4)c4ccccc34)CC2)nc1
6.99 | 7.16 | 6.95 | 6.01 | N#Cc1ccc(N2CCN(c3nnc(Cc4ccc(F)cc4)c4ccccc34)CC2)nc1
6.73 | 6.65 | 6.44 | 5.91 | N#Cc1ccc(N2CCN(c3nnc(Cc4ccc(C(F)(F)F)cc4)c4ccccc34)CC2)nc1
< 5.30 | < 5.30 | 6.04 | 5.60 | N#Cc1ccc(N2CCN(c3cnc(Cc4ccccc4)c4ccccc34)CC2)nc1

pIC50 (Protein smoothened [1]) | pIC50 (Protein smoothened [2]) | pIC50 (Protein smoothened [3]) | pIC50 (Protein smoothened [4]) | SMILES
6.64 | 6.86 | 6.67 | 5.59 | FC(F)(F)c1ccc(N2CCN(c3nnc(Cc4ccccc4)c4occc34)CC2)nc1
6.14 | 6.76 | 7.34 | 6.83 | NC(=O)c1ccc(N2CCN(c3nnc(Cc4ccccc4)c4ccccc34)CC2)nc1
7.23 | 7.18 | 7.10 | 6.13 | C[C@H]1CN(c2nnc(Cc3ccccc3)c3ccccc23)CCN1c1ccc(C#N)cn1
5.53 | 6.78 | 6.58 | < 5.30 | COC(=O)c1ccc(Cc2nnc(N3CCN(c4ccc(C#N)cn4)CC3)c3ccccc23)cc1
7.17 | 7.21 | 7.42 | 6.65 | CC(O)c1ccc(N2CCN(c3nnc(Cc4ccccc4)c4ccccc34)CC2)nc1 (stereo unspecified)
7.60 | 7.70 | 7.32 | 6.30 | N#Cc1ccc(N2CCN(c3nnc(Cc4ccc(Cl)cc4)c4ccccc34)CC2)nc1
6.95 | 7.15 | 7.16 | 6.09 | N#Cc1ccc(N2CCN(c3nnc(Cc4ccccc4)c4ccccc34)CC2)nc1
6.41 | 6.82 | 6.68 | 5.79 | N#Cc1ccc(N2CCCN(c3nnc(Cc4ccccc4)c4ccccc34)CC2)nc1
6.18 | 6.54 | 7.85 | 6.61 | CN(C)Cc1ccc(N2CCN(c3nnc(Cc4ccccc4)c4ccccc34)CC2)nc1
5.37 | 5.96 | 6.38 | 5.65 | c1ccc(Cc2nnc(N3CCN(c4ccccc4)CC3)c3ccccc23)cc1
7.15 | 7.55 | 7.77 | 6.87 | CC(O)(CO)c1ccc(N2CCN(c3nnc(Cc4ccccc4)c4ccccc34)CC2)nc1 (racemic)
< 5.30 | < 5.30 | < 5.30 | < 5.30 | N#Cc1ccc(N2CCN(c3nnc(Cc4ccc(C(=O)O)cc4)c4ccccc34)CC2)nc1
7.02 | 7.13 | 6.87 | 5.88 | FC(F)(F)c1ccc(N2CCN(c3nnc(Cc4ccccc4)c4ccccc34)CC2)nc1
7.68 | 8.00 | 7.26 | 6.46 | OC1(c2ccc(N3CCN(c4nnc(Cc5ccccc5)c5ccccc45)CC3)nc2)CC1
< 5.30 | 5.43 | 6.16 | 5.35 | c1ccc(N2CCN(c3nnc(Cc4ccncc4)c4ccccc34)CC2)nc1
7.77 | 7.66 | 7.60 | 6.68 | C[C@H]1CN(c2ccc(C#N)cn2)CCN1c1nnc(Cc2ccccc2)c2ccccc12
< 5.30 | < 5.30 | 6.14 | 5.81 | FC(F)(F)c1ccc(N2CCN(c3nnc(Cc4ccccc4)c4[nH]cnc34)CC2)nc1
